Results from patent US8148421B2, “Phenylacetic acid derivative” (Fuji Yakuhin Co., Ltd., priority 2006, dated 2012).

Test system: not listed separately
Assay: Safety factor (UD30 gastric mucosa injury / ED50 anti-pollakiuria)
Format: in vivo
Conditions: SD, rat, in vivo
Description: Safety factor was obtained in accordance with the following equation using the ED50 value and UD30 value obtained in the tests for the anti-pollakiuria effect in CPA-induced rat pollakiuria model and the gastric mucosa injury induction action by single oral administration in rats, respectively. Safety factor=UD30 value (mg/kg) for gastric mucosa injury induction action by single oral administration in rats/ED50 value (mg/kg) for anti-pollakiuria effect in CPA-induced rat pollakiuria model

**Q.** With CC(C(=O)O)c1ccc(CC2CCCC2=O)cc1 (centres unmarked) [Loxoprofen-Na, reference compound] as the compound, how does the Safety factor read?
**A.** Its Safety factor is 14.

Same assay, conditions: UD30 value (mg/kg) / ED50 value (mg/kg), rats

**Q.** For C[C@H](C(=O)O)c1ccc(/C=C2\SCC[C@@H]2O)cc1 [Example 19-C, (2S,3′S)-2-{4-[3-Hydroxythiolan-(Z)-2-ylidenemethyl]phenyl}propionic Acid], which Safety factor is on record?
**A.** The Safety factor was 138.

Test system: gastric mucosa
Assay: Gastric mucosa injury induction action by single oral administration in rats
Format: in vivo, rat
Conditions: starved male SD rats, stomach examined after 5 hours, probit method
Description: 2. Gastric Mucosa Injury Induction Action by Single Oral Administration in Rats
7-Week old male SD rats were starved for 24 hours, and then used for the test. Five hours after the oral administration of a test substance, the stomach was extracted, and incised along the greater curvature of stomach, and a stomach specimen was fixed in a neutrally buffered 1% formalin solution. The stomach specimen was observed under a stereoscopic microscope, and when specimen had four or more hemorrhagic sores or ulcers having a major axis of 0.5 mm or larger, the result was judged to be positive. […]

**Q.** With C[C@H](C(=O)O)c1ccc(/C=C2\SCC[C@@H]2O)cc1 [Example 19-C, (2S,3′S)-2-{4-[3-Hydroxythiolan-(Z)-2-ylidenemethyl]phenyl}propionic Acid] as the compound, how does the “UD30 value (gastric mucosa injury)” value read?
**A.** The value was 13.8 mg/kg.

**Q.** With CC(C(=O)O)c1ccc(CC2CCCC2=O)cc1 (centres unmarked) [Loxoprofen-Na, reference compound] as the compound, how does the “UD30 value (gastric mucosa injury)” value read?
**A.** Its value is 25.5 mg/kg.

Test system: CPA-induced rat pollakiuria model
Assay: Anti-pollakiuria effect in cyclophosphamide (CPA)-induced rat pollakiuria model
Format: in vivo
Conditions: oral administration, male SD rats, CPA 150 mg/kg i.p., urination frequency over 3 hours, probit method
Description: 1. Anti-Pollakiuria Effect in Cyclophosphamide (CPA)-Induced Rat Pollakiuria Model
To 7-week old male SD rats, 150 mg/kg of CPA was intraperitoneally administered, and the rats were starved for 24 hours, and then used for the test. Thirty minutes after the oral administration of the test substance, physiological saline (30 ml/kg) was orally administered, the rats were put into a metabolism cage for rats, and then frequency of urination was counted for 3 hours. For the counting of the frequency of urination, a weighing dish hung from an FD pickup was disposed at a urine outlet at the lower part of the metabolism cage, and frequency of urination was obtained based on change of urination volume obtained by a polygraph apparatus. To a control (treated with CPA) and an intact control (no treatment), the solvent was orally administered, and frequency of urination was counted in the same manner. Improvement rate of pollakiuria induced by the CPA treatment relative to the control was calculated in accordance with the following equation, and ED50 value was further calculated by the probit method based on the improvement rate at each dose. Improvement rate (%)=(Urination frequency of control−Urination frequency observed with test substance)/(Urination frequency of control−Urination frequency of intact control)×100

**Q.** Which ED50 does the source give for C[C@H](C(=O)O)c1ccc(/C=C2\SCC[C@@H]2O)cc1 [Example 19-C, (2S,3′S)-2-{4-[3-Hydroxythiolan-(Z)-2-ylidenemethyl]phenyl}propionic Acid] here?
**A.** Its ED50 is 0.1 mg/kg.

**Q.** For CC(C(=O)O)c1ccc(CC2CCCC2=O)cc1 (centres unmarked) [Loxoprofen-Na, reference compound], which ED50 is on record?
**A.** Its ED50 is 1.8 mg/kg.

Test system: PGE2 production in A549 cells
Assay: Suppressing action against PGE2 production in human cultured cells (A549, IL-1β-induced cyclooxygenase 2, arachidonic acid added)
Format: cell-based
Conditions: 10 μM test substance, PGE2 in medium by EIA, duplicate
Description: In Vitro Evaluation Method (Suppressing Action Against PGE2 Production in Human Cultured Cells)
A549 cells were inoculated on a 24-well plate (10^5 cells/ml/well), and cultured for 1 day in the Ham's F-12 medium containing 10% fetal bovine serum (FBS). The medium was removed, and the cells were washed with Dulbecco's phosphate buffered saline (PBS), and then cultured for 3 days in the Ham's F-12 medium containing 1 ng/ml of a recombinant human IL-1β and FBS to induce cyclooxygenase 2. After the medium was removed, and the cells were washed with PBS, 0.99 ml of the Ham's F-12 mediums containing a test substance (dissolved in dimethyl sulfoxide at a final concentration of 1% and added) and […] L-glutathione reduced was added to the cells, and the cells were incubated at 37° C. for 30 minutes in a 5% CO2 incubator. To the culture was added 10 μl of a 0.5 mg/ml solution of arachidonic acid in ethanol (final concentration: 5 μg/ml), and the reaction was performed by incubating the culture at 37° C. and 50 rpm for 30 minutes. After completion of the reaction, the medium was immediately collected, and the PGE2 concentration in the medium was measured by using Prostaglandin E2 Express EIA Kit (Cayman Chemical). Dimethyl sulfoxide not containing the test substance was added to a blank and a control, and ethanol not containing arachidonic acid was added to the blank to perform the reaction. The experiment was performed in duplicate. The suppression rate of the test substance based on the control was calculated by using the following equation. Suppression rate (100%)=100×[1−(PGE2 concentration in medium containing test substance−PGE2 concentration in medium of blank)/(PGE2 concentration in medium of control−PGE2 concentration in medium of blank)]

**Q.** With CC(C(=O)O)c1ccc(CC2CCCC2O)cc1 (centres unmarked) [LXP-2a, reference compound] as the compound, how does the “PGE2 production suppression rate at 10 μM, Suppression rate (%)” value (“PGE2 production suppression rate … (%)” below) read?
**A.** The value was 92.0%.

**Q.** For CC(C(=O)O)c1ccc(CC2SCCC2O)cc1 (single isomer, unassigned) [Example 27-B, 2-[4-(3-Hydroxythiolan-2-ylmethyl)phenyl]propionic Acid], which “PGE2 production suppression rate … (%)” value is on record?
**A.** The value was 76.3%.

**Q.** For CC(C(=O)O)c1ccc(CC2SCCC2O)cc1 (single isomer, unassigned) [Example 27-A, 2-[4-(3-Hydroxythiolan-2-ylmethyl)phenyl]propionic Acid], which “PGE2 production suppression rate … (%)” value is on record?
**A.** The value was 40.0%.

Same assay, conditions: Homo sapiens, A549, 0.5 h, 10 μM test substance, PGE2 in medium by EIA, duplicate, read-out: PGE2 production suppression rate at 10 μM, Suppression rate (%)

**Q.** Which inhibition at 10 µM does the source give for CC(C(=O)O)c1ccc(/C=C2\SCCC2(F)F)cc1 (centres unmarked) [Example 25, 2-[4-(3,3-Difluorothiolan-2-ylidenemethyl)phenyl]propionic Acid] here?
**A.** The inhibition at 10 µM was 73.3%.

**Q.** With C[C@H](C(=O)O)c1ccc(/C=C2\SCC[C@@H]2O)cc1 [Example 19-C, (2S,3′S)-2-{4-[3-Hydroxythiolan-(Z)-2-ylidenemethyl]phenyl}propionic Acid] as the compound, how does the inhibition at 10 µM read?
**A.** The inhibition at 10 µM was 101%.

**Q.** For O=C(O)Cc1ccc(/C=C2\SCCC2=O)cc1 [Example 29, 4-(3-Oxothiolan-2-ylidenemethyl)phenylacetic Acid], which inhibition at 10 µM is on record?
**A.** Its inhibition at 10 µM is 96.8%.

**Q.** With CC(C(=O)O)c1ccc(/C=C2/CCCS2)cc1 (centres unmarked) [Example 37, 2-[4-(Thiolan-2-ylidenemethyl)phenyl]propionic Acid] as the compound, how does the inhibition at 10 µM read?
**A.** Its inhibition at 10 µM is 89.7%.

**Q.** Which inhibition at 10 µM does the source give for CC(C(=O)O)c1ccc(CC2CSCC2O)cc1 (centres unmarked) [Example 9-A, 2-[4-(4-Hydroxythiolan-3-ylmethyl)phenyl]propionic Acid] here?
**A.** Its inhibition at 10 µM is 34.7%.

**Q.** With CC(C(=O)O)c1ccc(CC2CSCC2=O)cc1 (centres unmarked) [Example 8, 2-[4-(4-Oxothiolan-3-ylmethyl)phenyl]propionic Acid] as the compound, how does the inhibition at 10 µM read?
**A.** The inhibition at 10 µM was 66.4%.

**Q.** With C[C@H](C(=O)O)c1ccc(/C=C2/C=CCS2)cc1 [Example 20, (2S)-2-[4-(2,5-Dihydrothien-(Z)-2-ylidenemethyl)phenyl]propionic Acid] as the compound, how does the inhibition at 10 µM read?
**A.** The inhibition at 10 µM was 94.5%.

**Q.** For CC(C(=O)O)c1ccc(/C=C2\SCCC2=O)cc1 (centres unmarked) [Example 14, 2-{4-[3-Oxothiolan-(Z)-2-ylidenemethyl]phenyl}propionic Acid], which inhibition at 10 µM is on record?
**A.** Its inhibition at 10 µM is 98.5%.

**Q.** With CC(C(=O)O)c1ccc(/C=C2\CSCC2=O)cc1 (centres unmarked) [Example 23, 2-[4-(4-Oxothiolan-3-ylidenemethyl)phenyl]propionic Acid] as the compound, how does the inhibition at 10 µM read?
**A.** Its inhibition at 10 µM is 102%.

**Q.** For CC(C(=O)O)c1ccc(/C=C2\SCCC2O)c(F)c1 (centres unmarked) [Example 61, 2-[3-Fluoro-4-(3-hydroxythiolan-2-ylidenemethyl)phenyl]propionic Acid], which inhibition at 10 µM is on record?
**A.** The inhibition at 10 µM was 92.8%.

**Q.** Which inhibition at 10 µM does the source give for CC(C(=O)O)c1ccc(/C=C2\CCSC2=O)cc1 (centres unmarked) [Example 35, 2-[4-(2-Oxothiolan-3-ylidenemethyl)phenyl]propionic Acid] here?
**A.** Its inhibition at 10 µM is 44%.

**Q.** For CC(C(=O)O)c1ccc(/C=C2\SCCC2O)cc1 (centres unmarked) [Example 18, 2-{4-[3-Hydroxythiolan-(Z)-2-ylidenemethyl]phenyl}propionic Acid], which inhibition at 10 µM is on record?
**A.** Its inhibition at 10 µM is 99.5%.

**Q.** For CC(C(=O)O)c1ccc(CC2SCCC2=O)cc1 (centres unmarked) [Example 26, 2-[4-(3-Oxothiolan-2-ylmethyl)phenyl]propionic Acid], which inhibition at 10 µM is on record?
**A.** Its inhibition at 10 µM is 79.6%.

**Q.** Which inhibition at 10 µM does the source give for CC(C(=O)O)c1ccc(CC2C=CSC2)cc1 (centres unmarked) [Example 10, 2-[4-(2,3-Dihydrothiophen-3-ylmethyl)phenyl]propionic Acid] here?
**A.** Its inhibition at 10 µM is 69.4%.

**Q.** With CC(C(=O)O)c1ccc(/C=C2\SCCCC2=O)cc1 (centres unmarked) [Example 4, 2-[4-(3-Oxothian-2-ylidenemethyl)phenyl]propionic Acid] as the compound, how does the inhibition at 10 µM read?
**A.** Its inhibition at 10 µM is 77.8%.

**Q.** With CC(C(=O)O)c1ccc(/C=C2\SCCC2O)c(Cl)c1 (centres unmarked) [Example 65, 2-[3-Chloro-4-(3-hydroxythiolan-2-ylidenemethyl)phenyl]propionic Acid] as the compound, how does the inhibition at 10 µM read?
**A.** Its inhibition at 10 µM is 101%.

**Q.** With CC(C(=O)O)c1ccc(/C=C2\SCCCC2O)cc1 (centres unmarked) [Example 5, 2-[4-(3-Hydroxythian-2-ylidenemethyl)phenyl]propionic Acid] as the compound, how does the inhibition at 10 µM read?
**A.** Its inhibition at 10 µM is 68.4%.

**Q.** For CCOC(=O)C(C)c1ccc(/C=C2\SCCC2=O)cc1 (centres unmarked) [Example 15, Ethyl 2-{4-[3-oxothiolan-(Z)-2-ylidenemethyl]phenyl}propionate], which inhibition at 10 µM is on record?
**A.** The inhibition at 10 µM was 36.9%.

**Q.** For C[C@@H](C(=O)O)c1ccc(/C=C2\SCC[C@@H]2O)cc1 [Example 19-D, (2R,3′S)-2-{4-[3-Hydroxythiolan-(Z)-2-ylidenemethyl]phenyl}propionic Acid], which inhibition at 10 µM is on record?
**A.** Its inhibition at 10 µM is 44.5%.

**Q.** For CC(C(O)=S)c1ccc(CC2CSCC2=O)cc1 (centres unmarked) [Example 11, 2-[4-(4-Oxothiolan-3-ylmethyl)phenyl]thiopropionic Acid], which inhibition at 10 µM is on record?
**A.** Its inhibition at 10 µM is 49.2%.

**Q.** For CC(C(=O)OC(C)(C)C)c1ccc(/C=C2\SCCC2=O)cc1 (centres unmarked) [Example 13, tert-Butyl 2-{4-[3-oxothiolan-(Z)-2-ylidenemethyl]phenyl}propionate], which inhibition at 10 µM is on record?
**A.** Its inhibition at 10 µM is 48%.

**Q.** For O=C(O)Cc1ccc(/C=C2\SCCC2O)cc1 (centres unmarked) [Example 31, 4-(3-Hydroxythiolan-2-ylidenemethyl)phenylacetic Acid], which inhibition at 10 µM is on record?
**A.** Its inhibition at 10 µM is 85.9%.

**Q.** Which inhibition at 10 µM does the source give for CC(C(=O)O)c1ccc(/C=C2\CSCC2O)cc1 (centres unmarked) [Example 22, 2-[4-(4-Hydroxythiolan-3-ylidenemethyl)phenyl]propionic Acid] here?
**A.** Its inhibition at 10 µM is 99.7%.

**Q.** With COc1cc(/C=C2\SCCC2O)ccc1C(C)C(=O)O (centres unmarked) [Example 53, 2-[4-(3-Hydroxythiolan-2-ylidenemethyl)-2-methoxyphenyl]propionic Acid] as the compound, how does the inhibition at 10 µM read?
**A.** Its inhibition at 10 µM is 72.8%.

**Q.** Which inhibition at 10 µM does the source give for CC(C(=O)O)c1ccc(/C=C2\SCCC2O)c([N+](=O)[O-])c1 (centres unmarked) [Example 57, 2-[4-(3-Hydroxythiolan-2-ylidenemethyl)-3-nitrophenyl]propionic Acid] here?
**A.** The inhibition at 10 µM was 91.6%.

**Q.** For CC(C(=O)O)c1cccc(/C=C2\SCCC2O)c1 (centres unmarked) [Example 69, 2-[3 (3-Hydroxythiolan-2-ylidenemethyl)phenyl]propionic Acid], which inhibition at 10 µM is on record?
**A.** The inhibition at 10 µM was 22.8%.
